Assay results: patent publication US10849881B2, “Octahydro-cyclobuta[1,2-c;3,4-c′]dipyrrol-2-yl” (Hoffmann-La Roche Inc., priority 2013, dated 2020)

What follows are compounds tested against ATX (human His-tagged) (Homo sapiens (Human), UniProt Q13822) (assay: Human ATX enzyme inhibition assay (fluorescence quenching, MR121 substrate)). Conditions: 30 nM ATX, 1 μM MR121 substrate, 30° C., pH 8.0.
Type: biochemical
How it was run: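 Fluorescence quenching assay with MR121/tryptophan-labelled substrate analogue in Tris-HCl buffer (140 mM NaCl, CaCl2, MgCl2, 0.01% Triton X-100, pH 8.0). Serially diluted compounds were preincubated 15 min at 30 °C with 30 nM ATX (final), then 1 µM substrate (final) added and incubated 15 min at 30 °C.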
`O=C(c1ccc2[nH]nnc2c1)N1C[C@@H]2[C@H](C1)[C@H]1CN(C(=O)c3cccc(OCC(F)(F)F)n3)C[C@@H]21` [Example 1.098, (1H-benzotriazol-5-yl)-{(3aS,3bR,6aS,6bR)-5-[6-(2,2,2-trifluoro-ethoxy)-pyridine-2-carbonyl]-octahydro-cyclobuta[1,2-c;3,4-c′]dipyrrol-2-yl}-methanone] was tested, and the IC50 was 859 nM. In the case of `O=C(c1ccc(OCC(F)(F)F)nc1)N1C[C@@H]2[C@H](C1)[C@H]1CN(C(=O)c3ccc4[nH]nnc4c3)C[C@@H]21` [Example 1.099, (1H-benzotriazol-5-yl)-{(3aS,3bS,6aR,6bR)-5-[6-(2,2,2-trifluoro-ethoxy)-pyridine-3-carbonyl]-octahydro-cyclobuta[1,2-c;3,4-c′]dipyrrol-2-yl}-methanone], the IC50 is reported as 277 nM. With `O=C(c1cnc(OCC(F)(F)F)c(Br)c1)N1C[C@@H]2[C@H](C1)[C@H]1CN(C(=O)c3ccc4[nH]nnc4c3)C[C@@H]21` [Example 1.100, (1H-benzotriazol-5-yl)-{(3aS,3bS,6aR,6bR)-5-[5-bromo-6-(2,2,2-trifluoro-ethoxy)-pyridine-3-carbonyl]-octahydro-cyclobuta[1,2-c;3,4-c′]dipyrrol-2-yl}-methanone] the IC50 was 10 nM. For `O=C(c1ccc2[nH]nnc2c1)N1C[C@@H]2[C@H](C1)[C@H]1CN(C(=O)c3ccc(OCC(F)(F)F)cn3)C[C@@H]21` [Example 1.101, (1H-benzotriazol-5-yl)-{(3aS,3bR,6aS,6bR)-5-[5-(2,2,2-trifluoro-ethoxy)-pyridine-2-carbonyl]-octahydro-cyclobuta[1,2-c;3,4-c′]dipyrrol-2-yl}-methanone], the IC50 was 4430 nM. Work on `Cc1ccc(C(=O)N2C[C@@H]3[C@H](C2)[C@H]2CN(C(=O)c4ccc(OCC5CC5)nn4)C[C@@H]32)cc1C` [Example 1.102, [(3aS,3bR,6aS,6bR)-5-(6-cyclopropylmethoxy-pyridazine-3-carbonyl)-octahydro-cyclobuta[1,2-c;3,4-c′]dipyrrol-2-yl]-(3,4-dimethyl-phenyl)-methanone] yielded an IC50 of 992 nM. `O=C(c1cnc(OCC(F)(F)F)c(C2CC2)c1)N1C[C@@H]2[C@H](C1)[C@H]1CN(C(=O)c3ccc4[nH]nnc4c3)C[C@@H]21` [Example 1.104, (1H-benzotriazol-5-yl)-{(3aS,3bS,6aR,6bR)-5-[5-cyclopropyl-6-(2,2,2-trifluoro-ethoxy)-pyridine-3-carbonyl]-octahydro-cyclobuta[1,2-c;3,4-c′]dipyrrol-2-yl}-methanone] showed an IC50 of 10 nM. `O=C(c1cnc(OCC(F)(F)F)c(C(F)(F)F)c1)N1C[C@@H]2[C@H](C1)[C@H]1CN(C(=O)c3ccc4[nH]nnc4c3)C[C@@H]21` [Example 1.105, (1H-benzotriazol-5-yl)-{(3aS,3bS,6aR,6bR)-5-[6-(2,2,2-trifluoro-ethoxy)-5-trifluoromethyl-pyridine-3-carbonyl]-octahydro-cyclobuta[1,2-c;3,4-c′]dipyrrol-2-yl}-methanone] was tested, and the IC50 was 8 nM. For `O=C(c1cnc(OCC(F)(F)F)c(C2CCOCC2)c1)N1C[C@@H]2[C@H](C1)[C@H]1CN(C(=O)c3ccc4[nH]nnc4c3)C[C@@H]21` [Example 1.106, (1H-benzotriazol-5-yl)-{(3aS,3bS,6aR,6bR)-5-[5-(tetrahydro-pyran-4-yl)-6-(2,2,2-trifluoro-ethoxy)-pyridine-3-carbonyl]-octahydro-cyclobuta[1,2-c;3,4-c′]dipyrrol-2-yl}-methanone], the IC50 was 169 nM. In the case of `O=C(c1ccc2[nH]nnc2c1)N1C[C@@H]2[C@H](C1)[C@H]1CN(C(=O)c3cc(-c4ccc(Cl)cc4)c(OCC(F)(F)F)cn3)C[C@@H]21` [Example 1.107, (1H-benzotriazol-5-yl)-{(3aS,3bR,6aS,6bR)-5-[4-(4-chloro-phenyl)-5-(2,2,2-trifluoro-ethoxy)-pyridine-2-carbonyl]-octahydro-cyclobuta[1,2-c;3,4-c′]dipyrrol-2-yl}-methanone], the IC50 is reported as 141 nM.
